Patent US9113629B2, “4-amino-6-(4-substituted-phenyl)-picolinates and 6-amino-2-(4-substituted-phenyl)-pyrimidine-4-carboxylates and their use as herbicides” (DOW AGROSCIENCES LLC, priority 2013, dated 2015)
Like-named read-outs stand apart in the source and are kept apart here.

Columns and labels:
Type in all cases: in vivo
[1] = system: AVEFA: wild oats (Avena fatua); assay: Post-emergent Test I herbicidal activity; conditions: post-emergence, 336 h, read-out: Visual Growth Reduction (%) 14 Days After Application, AVEFA; for pest or weed control at 3840 g/ha: 3.84 kg ai/ha; for pest or weed control at 4040 g/ha: 4.04 kg ai/ha
Experimental: (§1) Post-emergent Test I Seeds test species were obtained from commercial suppliers and planted into a 13 cm diameter-round pot containing soil-less media mix (metro-mix 360®, Sun Gro Horticulture). Postemergence treatments were planted 8-12 days prior to application and cultured in a greenhouse equipped with supplemental light sources to provide a 16 h photoperiod at 24-29° C. All pots were surface irrigated.
(§2) A weighted amount, determined by the highest rate to be tested, of each compound was dissolved in 1.3 mL acetone-DMSO (97:3, v/v) and diluted with 4.1 mL water-isopropanol-crop oil concentrate (78:20:2, v/v/v) containing 0.02% Triton X-155 to obtain concentrated stock solutions. Additional application rates were obtained by serial dilution of the high rate solution into a solution containing appropriate volume of 97:3 v/v mixture of acetone and DMSO and appropriate volume of an aqueous mixture of water, isopropyl alcohol, crop oil concentrate (78:20:2, v/v/v) containing 0.02% Triton X-155.
(§3) Formulated compounds were applied using a DeVilbiss® compressed air sprayer at 2-4 psi. Following treatment, pots were returned to the greenhouse for the duration of the experiment. All pots were sub-irrigated as need to provide optimum growing conditions. All pots were fertilized one time per week by subirrigating with Peters Peat-Lite Special® fertilizer (20-10-20).
(§4) […] All evaluations were made visually on a scale of 0 to 100 where 0 represents no activity and 100 represents complete plant death. Visual assessments of plant injury were made based on growth reduction, discoloration, leaf deformity and necrosis.

[2] = system: ECHCG: barnyardgrass (Echinochloa crus-galli); assay: Post-emergent Test I herbicidal activity; conditions: post-emergence, 336 h, read-out: Visual Growth Reduction (%) 14 Days After Application, ECHCG; for pest or weed control at 3840 g/ha: 3.84 kg ai/ha; for pest or weed control at 4040 g/ha: 4.04 kg ai/ha; for pest or weed control at 4000 g/ha: 4 kg ai/ha
Experimental: as §1, §2, §3, §4

[3] = system: SETFA: giant foxtail (Setaria faberi); assay: Post-emergent Test I herbicidal activity; conditions: post-emergence, 336 h, read-out: Visual Growth Reduction (%) 14 Days After Application, SETFA; for pest or weed control at 3840 g/ha: 3.84 kg ai/ha; for pest or weed control at 4040 g/ha: 4.04 kg ai/ha; for pest or weed control at 4000 g/ha: 4 kg ai/ha
Experimental: as §1, §2, §3, §4

[4] = system: AMARE: redroot pigwseed (Amaranthus retroflexus); assay: Post-emergent Test I herbicidal activity; conditions: post-emergence, read-out: Visual Growth Reduction (%), AMARE; for pest or weed control at 3840 g/ha: 3.84 kg ai/ha; for pest or weed control at 4040 g/ha: 4.04 kg ai/ha; for pest or weed control at 4000 g/ha: 4 kg ai/ha
Experimental: as §1, §2, §3, §4

[5] = system: IPOHE: ivyleaf morningglory (Ipomoea hederecea); assay: Post-emergent Test I herbicidal activity; conditions: post-emergence, 336 h, read-out: Visual Growth Reduction (%) 14 Days After Application, IPOHE; for pest or weed control at 3840 g/ha: 3.84 kg ai/ha; for pest or weed control at 4040 g/ha: 4.04 kg ai/ha; for pest or weed control at 4000 g/ha: 4 kg ai/ha
Experimental: as §1, §2, §3, §4

[6] = system: HELAN: sunflower (Helianthus annuus); assay: Post-emergent Test I herbicidal activity; conditions: post-emergence, 336 h, read-out: Visual Growth Reduction (%) 14 Days After Application, HELAN; for pest or weed control at 3840 g/ha: 3.84 kg ai/ha; for pest or weed control at 4040 g/ha: 4.04 kg ai/ha; for pest or weed control at 4000 g/ha: 4 kg ai/ha
Experimental: as §1, §2, §3, §4

[7] = system: VERPE: bird's-eye speedwell (veronica persica); assay: Post-emergent Test III, herbicidal activity in wheat and barley; conditions: for pest or weed control at 35 g/ha / pest or weed control at 70 g/ha / pest or weed control at 140 g/ha: Veronica persica, post-emergence, 504 h, read-out: Visual Growth Reduction (%) 21 Days After Application VERPE; for pest or weed control at 35 g/ha: 35 g ai/ha; for pest or weed control at 70 g/ha: 70 g ai/ha; for pest or weed control at 140 g/ha: 140 g ai/ha; for GR50 VERPE / GR80 VERPE: probit analysis
Outline: (§5)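 Plants at the second to third true-leaf stage, grown in a greenhouse at about 18/17 °C with a 14 h photoperiod, were sprayed post-emergence at 187 L/ha with the high rate and ½× to 1/16× serial dilutions in an acetone/DMSO/crop-oil/surfactant carrier. Injury was rated visually at 21 d on a 0–100% scale, and GR20–GR90 were derived by probit analysis.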

[8] = system: BROTE: downy brome (Bromus tectorum); assay: as above; conditions: for pest or weed control at 35 g/ha / pest or weed control at 70 g/ha / pest or weed control at 140 g/ha: Bromus tectorum, post-emergence, 504 h, read-out: Visual Growth Reduction (%) 21 Days After Application BROTE; for pest or weed control at 35 g/ha: 35 g ai/ha; for pest or weed control at 70 g/ha: 70 g ai/ha; for pest or weed control at 140 g/ha: 140 g ai/ha; for GR50 BROTE / GR80 BROTE: probit analysis, 21 days after application; for GR50 BROTE: dose for growth reduction of 50 percent; for GR80 BROTE: dose for growth reduction of 80 percent
Outline: as §5

[9] = dose for growth reduction of 50 percent, 21 days after application
[10] = dose for growth reduction of 80 percent, 21 days after application

COC(=O)c1nc(-c2ccc(C#N)cc2F)cc(N)c1Cl [Compound 16]
pest or weed control at 3840 g/ha [1]: 0 to 29%
pest or weed control at 3840 g/ha [2]: 45 to 59%
pest or weed control at 3840 g/ha [3]: 60 to 74%
pest or weed control at 3840 g/ha [4]: 95 to 100%
pest or weed control at 3840 g/ha [5]: 95 to 100%
pest or weed control at 3840 g/ha [6]: 95 to 100%

N#Cc1ccc(-c2nc(C(=O)O)c(Cl)c(N)c2F)cc1 [Compound 39]
pest or weed control at 2000 g/ha ([1]; 2 kg ai/ha): 75 to 84%
pest or weed control at 2000 g/ha ([2]; 2 kg ai/ha): 85 to 94%
pest or weed control at 2000 g/ha ([4]; 2 kg ai/ha): 95 to 100%
pest or weed control at 2000 g/ha ([5]; 2 kg ai/ha): 60 to 74%
pest or weed control at 2000 g/ha ([6]; 2 kg ai/ha): 95 to 100%
pest or weed control at 35 g/ha [7]: 85 to 94%
pest or weed control at 70 g/ha [7]: 85 to 94%
pest or weed control at 140 g/ha [7]: 95 to 100%
GR50 VERPE [7, 9]: 1 g ai/ha
GR80 VERPE [7, 10]: 12 g ai/ha
pest or weed control at 35 g/ha [8]: 0 to 29%
pest or weed control at 70 g/ha [8]: 0 to 29%
pest or weed control at 140 g/ha [8]: 0 to 29%

COC(=O)c1nc(-c2ccc(C#N)c(F)c2)c(F)c(N)c1Cl [Compound 135, methyl 4-amino-3-chloro-6-(4-cyano-3-fluorophenyl)-5-fluoropicolinate]
pest or weed control at 4040 g/ha [1]: 60 to 74%
pest or weed control at 4040 g/ha [2]: 95 to 100%
pest or weed control at 4040 g/ha [3]: 75 to 84%
pest or weed control at 4040 g/ha [4]: 95 to 100%
pest or weed control at 4040 g/ha [5]: 85 to 94%
pest or weed control at 4040 g/ha [6]: 95 to 100%
GR50 VERPE ([7]; Table 8, dose for 50 percent growth reduction, 21 d): 24 g ai/ha
GR80 VERPE ([7]; Table 8, dose for 80 percent growth reduction, 21 d): 78 g ai/ha
pest or weed control at 35 g/ha ([7]; Table 8, post-emergent, 21 d): 60 to 74%
pest or weed control at 70 g/ha ([7]; Table 8, post-emergent, 21 d): 75 to 84%
pest or weed control at 140 g/ha ([7]; Table 8, post-emergent, 21 d): 85 to 94%

Nc1c(F)c(-c2ccc(OC(F)F)cc2)nc(C(=O)O)c1Cl [Compound 143]
pest or weed control at 4000 g/ha [2]: 95 to 100%
pest or weed control at 4000 g/ha [3]: 95 to 100%
pest or weed control at 4000 g/ha [4]: 95 to 100%
pest or weed control at 4000 g/ha [5]: 45 to 59%
pest or weed control at 4000 g/ha [6]: 95 to 100%
pest or weed control at 35 g/ha [7]: 30 to 44%
pest or weed control at 70 g/ha [7]: 45 to 59%
pest or weed control at 140 g/ha [7]: 45 to 59%
GR50 VERPE [7, 9]: 97 g ai/ha
GR80 VERPE [7, 10]: >140 g ai/ha
pest or weed control at 35 g/ha [8]: 0 to 29%
pest or weed control at 70 g/ha [8]: 45 to 59%
pest or weed control at 140 g/ha [8]: 45 to 59%
GR50 BROTE [8]: 95 g ai/ha
GR80 BROTE [8]: >140 g ai/ha

Nc1c(F)c(-c2ccc(Br)c(F)c2F)nc(C(=O)O)c1Cl [Compound 147]
pest or weed control at 3960 g/ha ([1]; 3.96 kg ai/ha): 75 to 84%
pest or weed control at 3960 g/ha ([2]; 3.96 kg ai/ha): 95 to 100%
pest or weed control at 3960 g/ha ([3]; 3.96 kg ai/ha): 95 to 100%
pest or weed control at 3960 g/ha ([4]; 3.96 kg ai/ha): 95 to 100%
pest or weed control at 3960 g/ha ([5]; 3.96 kg ai/ha): 95 to 100%
pest or weed control at 3960 g/ha ([6]; 3.96 kg ai/ha): 95 to 100%
pest or weed control at 35 g/ha [8]: 75 to 84%
pest or weed control at 70 g/ha [8]: 85 to 94%
pest or weed control at 140 g/ha [8]: 85 to 94%
GR50 BROTE [8]: 6 g ai/ha
GR80 BROTE [8]: 28 g ai/ha

N#Cc1ccc(-c2nc(C(=O)O)c(Cl)c(N)c2F)cc1F [Compound 156]
pest or weed control at 4040 g/ha [1]: 75 to 84%
pest or weed control at 4040 g/ha [2]: 95 to 100%
pest or weed control at 4040 g/ha [3]: 85 to 94%
pest or weed control at 4040 g/ha [4]: 95 to 100%
pest or weed control at 4040 g/ha [5]: 95 to 100%
pest or weed control at 4040 g/ha [6]: 95 to 100%

COC(=O)c1nc(-c2ccccc2)c(F)c(N)c1Cl [Compound 181]
pest or weed control at 1760 g/ha ([1]; 1.76 kg ai/ha): 0 to 29%
pest or weed control at 1760 g/ha ([2]; 1.76 kg ai/ha): 0 to 29%
pest or weed control at 1760 g/ha ([3]; 1.76 kg ai/ha): 0 to 29%
pest or weed control at 1760 g/ha ([4]; 1.76 kg ai/ha): 95 to 100%
pest or weed control at 1760 g/ha ([5]; 1.76 kg ai/ha): 75 to 84%
pest or weed control at 1760 g/ha ([6]; 1.76 kg ai/ha): 95 to 100%

COC(=O)c1nc(-c2ccc(C(F)F)c(F)c2)cc(N)c1Cl [Compound 196]
pest or weed control at 3840 g/ha [1]: 60 to 74%
pest or weed control at 3840 g/ha [2]: 95 to 100%
pest or weed control at 3840 g/ha [3]: 95 to 100%
pest or weed control at 3840 g/ha [4]: 95 to 100%
pest or weed control at 3840 g/ha [5]: 85 to 94%
pest or weed control at 3840 g/ha [6]: 95 to 100%

COC(=O)c1nc(-c2ccc(C(F)F)cc2)c(F)c(N)c1Cl [Compound 209]
pest or weed control at 4000 g/ha ([1]; 4 kg ai/ha): 85 to 94%
pest or weed control at 4000 g/ha [2]: 95 to 100%
pest or weed control at 4000 g/ha [3]: 95 to 100%
pest or weed control at 4000 g/ha [4]: 95 to 100%
pest or weed control at 4000 g/ha [5]: 85 to 94%
pest or weed control at 4000 g/ha [6]: 95 to 100%
pest or weed control at 35 g/ha [8]: 0 to 29%
pest or weed control at 70 g/ha [8]: 30 to 44%
GR50 BROTE [8]: 88 g ai/ha
GR80 BROTE [8]: >140 g ai/ha
